Here are results for eleven compounds from ChEMBL document CHEMBL1201862, “PubChem BioAssay data set” (2004).

Test in all cases: inhibition of tumour cell growth, NCI panel, 48 h
For test [1], the system named is A498.
In test [2] the test system is A549.
In test [3] the test system is DU-145.
Test [4] has as its system HCC 2998.
For test [5], the system named is HL-60.
Test [6] deals with IGROV-1.
Test [7] deals with K562.
Test [8] concerns M14.
Test [9] deals with OVCAR-5.
Test [10] has as its system PC-3.
Test [11] deals with SF-268.
In test [12] the test system is SF-295.
Test [13] has as its system SK-MEL-2.
Test [14] has as its system SK-OV-3.
For test [15], the system named is SN12C.
Test [16] concerns TK-10.
Test [17] has as its system U-251.
The test system of test [18] is UO-31.

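Five compound concentrations were applied to cells in 96-well plates for 48 hours; endpoints were derived by simple linear interpolation of the resulting dose-response curve. The concentration for 50% growth inhibition is given as GI50.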 The source made the active and inactive calls. No stated cut-off is given here; in the data, active = GI50 up to about 1.1 µM and inactive = higher. Bounds are passed on as bounds.

Consider `O=C1Nc2ccc(Br)cc2C1=Nc1cccnc1`, for which the GI50 in test [1] was > 100 µM (inactive); in test [2], 48.4 µM (inactive); in [3], 33 µM (inactive); in test [4], 20.6 µM (inactive); in [5], 11.8 µM (inactive); in test [6] it was 19 µM (inactive). For the same compound, the GI50 was 20.1 µM (inactive) in test [7]; 15.7 µM (inactive) in [8]; 29.3 µM (inactive) in test [9]; 18.1 µM (inactive) in test [10]; 27.7 µM (inactive) in test [11]; 50.4 µM (inactive) in test [12]. Moreover, the GI50 was 23.4 µM (inactive) in test [13]; 47.5 µM (inactive) in test [14]; 18.4 µM (inactive) in [15]; 57.5 µM (inactive) in [16]; 12.4 µM (inactive) in test [17]; 11.1 µM (inactive) in [18].
As for `Cc1ccc2c(c1)C(C1Cc3cccc(C)c3C1=O)OC2=O` (stereo not drawn), the GI50 in [1] was 46.2 µM (inactive); in [2], > 100 µM (inactive); in test [3], > 100 µM (inactive); in [4] it was > 100 µM (inactive); in [5] it was 35.8 µM (inactive); in test [6], > 100 µM (inactive). The GI50 is 84.3 µM (inactive) in test [7]; > 100 µM (inactive) in test [8]; > 100 µM (inactive) in test [9]; > 100 µM (inactive) in test [10]; > 100 µM (inactive) in test [11]; > 100 µM (inactive) in test [12]. Besides, the GI50 in [13], in [14], in [15], in test [16], in test [17] and in test [18] was > 100 µM (inactive) in each case.
On to `COc1cccc(CC(=O)N2CCN(CCCc3ccccc3)CC2)c1`, for which the GI50 in test [1] is > 100 µM (inactive); in [2], 66.5 µM (inactive); in test [3], > 100 µM (inactive); in test [4], 98.4 µM (inactive); in [5], 61.2 µM (inactive); in [6], > 100 µM (inactive). Also, the GI50 in [7] was 33.9 µM (inactive); in [8], 63.8 µM (inactive); in [9] it was > 100 µM (inactive); in test [10], > 100 µM (inactive); in test [11] it was > 100 µM (inactive); in test [12], 47.5 µM (inactive). Further, the GI50 in test [13] is > 100 µM (inactive); in test [14], > 100 µM (inactive); in [15], > 100 µM (inactive); in [16], 78.7 µM (inactive); in [17], > 100 µM (inactive); in test [18], 39.1 µM (inactive).
For the compound `O=C(O)/C(O)=C\C(=O)c1ccc(Br)cc1`, the GI50 in [1], in test [2], in [3], in [4], in [5] and in test [6] was > 100 µM (inactive) each time. The GI50 in test [7], in test [8], in test [9], in [10], in test [11] and in test [12] was > 100 µM (inactive) throughout. Moreover, the GI50 in test [13], in [14], in test [15], in [16], in test [17] and in [18] was > 100 µM (inactive) each time.
Consider `CCN(CC)/[N+]([O-])=N/OCOC`, for which the GI50 in [1], in test [2], in test [3], in test [4], in test [5] and in test [6] was > 100 µM (inactive) each time. Further, the GI50 in test [7], in [8], in [9], in [10], in test [11] and in [12] was > 100 µM (inactive) in each case. Also, the GI50 in [13], in test [14], in test [15], in test [16], in test [17] and in test [18] was > 100 µM (inactive) each time.
Consider `Nc1nc(Cl)cc(NCC2(CO)CCC(CCc3ccccc3)C2)n1` (stereo not drawn), for which the GI50 in [1] is 12.8 µM (inactive); in test [2], 12.6 µM (inactive); in test [3], 14.8 µM (inactive); in test [4], 17.5 µM (inactive); in test [5] it was 6.21 µM (inactive); in [6], 17.5 µM (inactive). The GI50 in test [7] was 0.962 µM (active); in test [8] it was 13.7 µM (inactive); in test [9] it was 14.5 µM (inactive); in [10] it was 19.3 µM (inactive); in [11], 16.6 µM (inactive); in test [12] it was 0.687 µM (active). Moreover, the GI50 is 18.5 µM (inactive) in test [13]; 17.5 µM (inactive) in test [14]; 16 µM (inactive) in test [15]; 18 µM (inactive) in test [16]; 15 µM (inactive) in test [17]; 18 µM (inactive) in test [18].
For `O=C1OC(c2ccccc2)=N/C1=C\c1cccc(F)c1`, the GI50 in test [1] was > 100 µM (inactive); in [2] it was > 100 µM (inactive); in [3], > 100 µM (inactive); in test [4], 72.3 µM (inactive); in test [5] it was 24.9 µM (inactive); in test [6] it was 52.5 µM (inactive). Also, the GI50 in test [7] was > 100 µM (inactive); in [8] it was 57.8 µM (inactive); in test [9], > 100 µM (inactive); in [10], > 100 µM (inactive); in [11], 34.5 µM (inactive); in test [12] it was 40.8 µM (inactive). The GI50 in test [13] was > 100 µM (inactive); in test [14], > 100 µM (inactive); in test [15] it was > 100 µM (inactive); in test [16] it was > 100 µM (inactive); in test [17], 38.1 µM (inactive); in [18], > 100 µM (inactive).
With `CC(C)(C)OC(=O)N1CCCC1=O`, the GI50 in test [1], in test [2], in test [3], in test [4], in [5] and in [6] was > 10 µM (inactive) in each case. The GI50 in test [7], in [8], in test [9], in test [10], in [11] and in test [12] was > 10 µM (inactive) in each case. The GI50 in test [13], in test [14], in test [15], in test [16], in [17] and in [18] was > 10 µM (inactive) each time.
Regarding `CCOP(=O)(OCC)/C(C#N)=C/c1cnc[nH]1`, the GI50 in test [1], in test [2], in [3], in test [4], in test [5] and in [6] was > 100 µM (inactive) in each case. In addition, the GI50 in test [7], in test [8], in test [9], in [10], in test [11] and in test [12] was > 100 µM (inactive) in each case. Moreover, the GI50 in [13], in test [14], in test [15], in test [16], in [17] and in test [18] was > 100 µM (inactive) each time.
`Cc1ccc(CNNC(=O)c2cc[n+]([BH2-]C#N)cc2)cc1`: the GI50 in test [1] was 15.6 µM (inactive); in test [2], 95.7 µM (inactive); in test [3] it was > 100 µM (inactive); in [4], > 100 µM (inactive); in test [5], 83.8 µM (inactive); in [6], > 100 µM (inactive). The GI50 in test [7] is 49.2 µM (inactive); in test [8], > 100 µM (inactive); in test [9], > 100 µM (inactive); in test [10] it was 84.9 µM (inactive); in [11], > 100 µM (inactive); in [12], > 100 µM (inactive). Besides, the GI50 in [13], in test [14], in test [15], in test [16], in test [17] and in test [18] was > 100 µM (inactive) each time.
As for `Oc1cccc2ccc(SSc3ccc4cccc(O)c4n3)nc12`, the GI50 was 19.2 µM (inactive) in test [1]; 31 µM (inactive) in [2]; 73.1 µM (inactive) in [3]; 5.56 µM (inactive) in test [4]; 22.8 µM (inactive) in test [5]; 24.7 µM (inactive) in test [6]. Also, the GI50 was 29.2 µM (inactive) in test [7]; 16 µM (inactive) in test [8]; 19.4 µM (inactive) in test [9]; 16.3 µM (inactive) in test [10]; 25.3 µM (inactive) in test [11]; 16.6 µM (inactive) in [12]. In addition, the GI50 is 19.1 µM (inactive) in test [13]; 16.3 µM (inactive) in [14]; 17.9 µM (inactive) in [15]; 20.1 µM (inactive) in test [16]; 16.4 µM (inactive) in test [17]; 25.8 µM (inactive) in [18].
